Results published in patent publication US20060148760A1, “Method for the sysnthesis of compounds of formula I and their uses thereof” (TransTech Pharma, priority 2000, published 2006).
Structures can show the parent of a compound that is named as a salt.

Tested on: S-100b/RAGE interaction in Glioma cells
Experiment: Functional assay: inhibition of NF-κB in Glioma cells (S-100b/RAGE interaction)
Assay type: cell-based
Details: Glioma cell

CCCCOc1cc(C(=O)OCCN(CC)CC)ccc1NC(=O)[C@H](N)Cc1ccc2ccccc2c1 [Example 1, (R)-3-(2-Naphthyl)-2-aminopropionic Acid 4-Diethylaminoethoxycarbonyl-2-butoxyaniline Amide Dihydrochloride]
IC50: 3.3 µM
